Experimental data: article PMC8160793, “Potent Antimicrobial and Antibiofilm Activities of Feleucin-K3 Analogs Modified by α-(4-Pentenyl)-Ala against Multidrug-Resistant Bacteria” (Biomolecules, 2021)
Values after ≈ are worked out from the molar mass of the structure shown. Square brackets hold non-standard residues; d marks the D form. Peptide text beside a SMILES is read from it. ξ: configuration not given here. ξαMeGly(pent-4-enyl) = C=CCCCC(C)(N)C(=O)O

Experiments:
E. coli ATCC 25922 = format: cell-based; conditions: ATCC 25922, 18 h
Description: (§1) The minimum inhibitory concentration (MIC) of the Feleucin-K3 analogs was tested by the broth microdilution method. Sensitive bacteria and drug-resistant bacteria were diluted to 1 × 10^6 CFU/mL, according to the McFarland standards. Bacterial suspension and peptide solutions (8–128 μg/mL) were incubated at 37 °C for 18 h. The minimum concentration without obvious bacterial growth was the MIC of the peptides. The stability of the analogs in a physiological salt environment was also investigated. In brief, salt powder (450-mM NaCl) was dissolved in deionized water, and the following investigational steps were the same as those described before. The above steps were repeated several times, until the same value was obtained three times.

S. aureus ATCC 25923 = format: cell-based, Staphylococcus aureus; conditions: ATCC 25923, 18 h
Description: as §1

P. aeruginosa ATCC 27853 = format: cell-based, Pseudomonas aeruginosa; conditions: ATCC 27853, 18 h
Description: as §1

A. baumannii ATCC 19606 = format: cell-based, Acinetobacter baumannii; conditions: ATCC 19606, 18 h
Description: as §1

MRSA 113 = format: cell-based, Staphylococcus aureus; conditions: 113, 18 h
Description: as §1

MRSA 23 = format: cell-based, Staphylococcus aureus; conditions: 23, 18 h
Description: as §1

MRSA 48 = format: cell-based, Staphylococcus aureus; conditions: 48, 18 h
Description: as §1

MRSA 51 = format: cell-based, Staphylococcus aureus; conditions: 51, 18 h
Description: as §1

MRSA 52 = format: cell-based, Staphylococcus aureus; conditions: 52, 18 h
Description: as §1

MRSA 54 = format: cell-based, Staphylococcus aureus; conditions: 54, 18 h
Description: as §1

MRSA 71 = format: cell-based, Staphylococcus aureus; conditions: 71, 18 h
Description: as §1

MRSA 74 = format: cell-based, Staphylococcus aureus; conditions: 74, 18 h
Description: as §1

MRSA 75 = format: cell-based, Staphylococcus aureus; conditions: 75, 18 h
Description: as §1

MRSA 936 = format: cell-based, Staphylococcus aureus; conditions: 936, 18 h
Description: as §1

MRSA ATCC 33591 = format: cell-based, Staphylococcus aureus; conditions: ATCC 33591, 18 h
Description: as §1

S. aureus 725 = format: cell-based, Staphylococcus aureus; conditions: 725, 18 h
Description: as §1

S. aureus 794 = format: cell-based, Staphylococcus aureus; conditions: 794, 18 h
Description: as §1

A. baumannii 51243 = format: cell-based, Acinetobacter baumannii; conditions: 51243, 18 h
Description: as §1

A. baumannii 5444 = format: cell-based, Acinetobacter baumannii; conditions: 5444, 18 h
Description: as §1

A. baumannii 822144 = format: cell-based, Acinetobacter baumannii; conditions: 822144, 18 h
Description: as §1

A. baumannii 8309 = format: cell-based, Acinetobacter baumannii; conditions: 8309, 18 h
Description: as §1

A. baumannii 91105 = format: cell-based, Acinetobacter baumannii; conditions: 91105, 18 h
Description: as §1

A. baumannii 91152 = format: cell-based, Acinetobacter baumannii; conditions: 91152, 18 h
Description: as §1

A. baumannii 91199 = format: cell-based, Acinetobacter baumannii; conditions: 91199, 18 h
Description: as §1

A. baumannii 91810 = format: cell-based, Acinetobacter baumannii; conditions: 91810, 18 h
Description: as §1

A. baumannii 91869 = format: cell-based, Acinetobacter baumannii; conditions: 91869, 18 h
Description: as §1

A. baumannii 91944 = format: cell-based, Acinetobacter baumannii; conditions: 91944, 18 h
Description: as §1

A. baumannii 9234 = format: cell-based, Acinetobacter baumannii; conditions: 9234, 18 h
Description: as §1

A. baumannii 92359 = format: cell-based, Acinetobacter baumannii; conditions: 92359, 18 h
Description: as §1

A. baumannii 9236 = format: cell-based, Acinetobacter baumannii; conditions: 9236, 18 h
Description: as §1

A. baumannii 9331 = format: cell-based, Acinetobacter baumannii; conditions: 9331, 18 h
Description: as §1

A. baumannii 9336 = format: cell-based, Acinetobacter baumannii; conditions: 9336, 18 h
Description: as §1

A. baumannii 97830 = format: cell-based, Acinetobacter baumannii; conditions: 97830, 18 h
Description: as §1

A. baumannii 98110 = format: cell-based, Acinetobacter baumannii; conditions: 98110, 18 h
Description: as §1

A. baumannii 9828 = format: cell-based, Acinetobacter baumannii; conditions: 9828, 18 h
Description: as §1

A. baumannii 9840 = format: cell-based, Acinetobacter baumannii; conditions: 9840, 18 h
Description: as §1

A. baumannii 9896 = format: cell-based, Acinetobacter baumannii; conditions: 9896, 18 h
Description: as §1

| SMILES | MIC, E. coli ATCC 25922 (E. coli ATCC 25922) | MIC, S. aureus ATCC 25923 (S. aureus ATCC 25923) | MIC, P. aeruginosa ATCC 27853 (P. aeruginosa ATCC 27853) | MIC, A. baumannii ATCC 19606 (A. baumannii ATCC 19606) | MIC, MRSA 113 (MRSA 113) | MIC, MRSA 23 (MRSA 23) | MIC, MRSA 48 (MRSA 48) | MIC, MRSA 51 (MRSA 51) | MIC, MRSA 52 (MRSA 52) | MIC, MRSA 54 (MRSA 54) | MIC, MRSA 71 (MRSA 71) | MIC, MRSA 74 (MRSA 74) | MIC, MRSA 75 (MRSA 75) | MIC, MRSA 936 (MRSA 936) | MIC, MRSA ATCC 33591 (MRSA ATCC 33591) | MIC, S. aureus 725 (S. aureus 725) | MIC, S. aureus 794 (S. aureus 794) | MIC, A. baumannii 51243 (A. baumannii 51243) | MIC, A. baumannii 5444 (A. baumannii 5444) | MIC, A. baumannii 822144 (A. baumannii 822144) | other results |
| --- | --- | --- | --- | --- | --- | --- | --- | --- | --- | --- | --- | --- | --- | --- | --- | --- | --- | --- | --- | --- | --- |
| C=CCCCC(C)(N)C(=O)N[C@@H](CC(C)C)C(=O)N[C@@H](CCCCN)C(=O)N[C@@H](C)C(=O)N[C@@H](CCCCN)C(=O)N[C@@H](CCCCN)C(=O)N[C@@H](CC(C)C)C(=O)N[C@@H](CC(C)C)C(N)=O (stereo partly drawn) [Feleucin-K66] (H-[ξαMeGly(pent-4-enyl)]LKAKKLL-NH2) | >128 µg/mL | >128 µg/mL | >128 µg/mL | >128 µg/mL | – | – | – | – | – | – | – | – | – | – | – | – | – | – | – | – | – |
| C=CCCCC(C)(NC(=O)[C@H](CCCCN)NC(=O)[C@H](CCCCN)NC(=O)[C@H](CC(C)C)NC(=O)[C@H](CC(C)C)NC(=O)[C@H](CCCCN)NC(=O)[C@H](CC(C)C)NC(=O)[C@@H](N)Cc1ccccc1)C(=O)N[C@@H](CC(C)C)C(N)=O (stereo partly drawn) [Feleucin-K69] (H-FLKLLKK[ξαMeGly(pent-4-enyl)]L-NH2) | 8 µg/mL (≈ 7.01 µM) | 4 µg/mL (≈ 3.51 µM) | 8 µg/mL (≈ 7.01 µM) | 8 µg/mL (≈ 7.01 µM) | 4 µg/mL (≈ 3.51 µM) | 4 µg/mL (≈ 3.51 µM) | 4 µg/mL (≈ 3.51 µM) | 4 µg/mL (≈ 3.51 µM) | 4 µg/mL (≈ 3.51 µM) | 4 µg/mL (≈ 3.51 µM) | 4 µg/mL (≈ 3.51 µM) | 8 µg/mL (≈ 7.01 µM) | 4 µg/mL (≈ 3.51 µM) | 4 µg/mL (≈ 3.51 µM) | 4 µg/mL (≈ 3.51 µM) | 4 µg/mL (≈ 3.51 µM) | 8 µg/mL (≈ 7.01 µM) | 8 µg/mL (≈ 7.01 µM) | 8 µg/mL (≈ 7.01 µM) | 8 µg/mL (≈ 7.01 µM) | MIC, A. baumannii 8309 (A. baumannii 8309): 8 µg/mL (≈ 7.01 µM); MIC, A. baumannii 91105 (A. baumannii 91105): 8 µg/mL (≈ 7.01 µM); MIC, A. baumannii 91152 (A. baumannii 91152): 8 µg/mL (≈ 7.01 µM); MIC, A. baumannii 91199 (A. baumannii 91199): 8 µg/mL (≈ 7.01 µM); MIC, A. baumannii 91810 (A. baumannii 91810): 8 µg/mL (≈ 7.01 µM); MIC, A. baumannii 91869 (A. baumannii 91869): 8 µg/mL (≈ 7.01 µM); MIC, A. baumannii 91944 (A. baumannii 91944): 8 µg/mL (≈ 7.01 µM); MIC, A. baumannii 9234 (A. baumannii 9234): 8 µg/mL (≈ 7.01 µM); MIC, A. baumannii 92359 (A. baumannii 92359): 4 µg/mL (≈ 3.51 µM); MIC, A. baumannii 9236 (A. baumannii 9236): 8 µg/mL (≈ 7.01 µM); MIC, A. baumannii 9331 (A. baumannii 9331): 8 µg/mL (≈ 7.01 µM); MIC, A. baumannii 9336 (A. baumannii 9336): 8 µg/mL (≈ 7.01 µM); MIC, A. baumannii 97830 (A. baumannii 97830): 8 µg/mL (≈ 7.01 µM); MIC, A. baumannii 98110 (A. baumannii 98110): 8 µg/mL (≈ 7.01 µM); MIC, A. baumannii 9828 (A. baumannii 9828): 8 µg/mL (≈ 7.01 µM); MIC, A. baumannii 9840 (A. baumannii 9840): 8 µg/mL (≈ 7.01 µM); MIC, A. baumannii 9896 (A. baumannii 9896): 8 µg/mL (≈ 7.01 µM) |
| C=CCCCC(C)(NC(=O)[C@@H](N)Cc1ccccc1)C(=O)N[C@@H](CCCCN)C(=O)N[C@@H](CC(C)C)C(=O)N[C@@H](CC(C)C)C(=O)N[C@@H](CCCCN)C(=O)N[C@@H](CCCCN)C(=O)N[C@@H](CC(C)C)C(=O)N[C@@H](CC(C)C)C(N)=O (stereo partly drawn) [Feleucin-K67] (H-F[ξαMeGly(pent-4-enyl)]KLLKKLL-NH2) | 8 µg/mL (≈ 7.01 µM) | 4 µg/mL (≈ 3.51 µM) | 8 µg/mL (≈ 7.01 µM) | 4 µg/mL (≈ 3.51 µM) | 4 µg/mL (≈ 3.51 µM) | 4 µg/mL (≈ 3.51 µM) | 4 µg/mL (≈ 3.51 µM) | 4 µg/mL (≈ 3.51 µM) | 4 µg/mL (≈ 3.51 µM) | 4 µg/mL (≈ 3.51 µM) | 4 µg/mL (≈ 3.51 µM) | 4 µg/mL (≈ 3.51 µM) | 4 µg/mL (≈ 3.51 µM) | 4 µg/mL (≈ 3.51 µM) | 4 µg/mL (≈ 3.51 µM) | 4 µg/mL (≈ 3.51 µM) | 8 µg/mL (≈ 7.01 µM) | 4 µg/mL (≈ 3.51 µM) | 4 µg/mL (≈ 3.51 µM) | 4 µg/mL (≈ 3.51 µM) | MIC, A. baumannii 8309 (A. baumannii 8309): 4 µg/mL (≈ 3.51 µM); MIC, A. baumannii 91105 (A. baumannii 91105): 4 µg/mL (≈ 3.51 µM); MIC, A. baumannii 91152 (A. baumannii 91152): 4 µg/mL (≈ 3.51 µM); MIC, A. baumannii 91199 (A. baumannii 91199): 4 µg/mL (≈ 3.51 µM); MIC, A. baumannii 91810 (A. baumannii 91810): 4 µg/mL (≈ 3.51 µM); MIC, A. baumannii 91869 (A. baumannii 91869): 4 µg/mL (≈ 3.51 µM); MIC, A. baumannii 91944 (A. baumannii 91944): 4 µg/mL (≈ 3.51 µM); MIC, A. baumannii 9234 (A. baumannii 9234): 4 µg/mL (≈ 3.51 µM); MIC, A. baumannii 92359 (A. baumannii 92359): 4 µg/mL (≈ 3.51 µM); MIC, A. baumannii 9236 (A. baumannii 9236): 4 µg/mL (≈ 3.51 µM); MIC, A. baumannii 9331 (A. baumannii 9331): 8 µg/mL (≈ 7.01 µM); MIC, A. baumannii 9336 (A. baumannii 9336): 4 µg/mL (≈ 3.51 µM); MIC, A. baumannii 97830 (A. baumannii 97830): 4 µg/mL (≈ 3.51 µM); MIC, A. baumannii 98110 (A. baumannii 98110): 4 µg/mL (≈ 3.51 µM); MIC, A. baumannii 9828 (A. baumannii 9828): 4 µg/mL (≈ 3.51 µM); MIC, A. baumannii 9840 (A. baumannii 9840): 4 µg/mL (≈ 3.51 µM); MIC, A. baumannii 9896 (A. baumannii 9896): 4 µg/mL (≈ 3.51 µM) |
